Data as given in publication PMC6637912 (Molecular Plant Pathology, 2019).
Where two headings read alike, the source gives them in different places.

Molecular target: T1, RipN (Ralstonia pseudosolanacearum, UniProt Q8XQT8)
T1 construct: gene RSp1130
Conditions: Mg2+ important, NEBuffer 3, 30 min

T1 sequence (Q8XQT8 1-474): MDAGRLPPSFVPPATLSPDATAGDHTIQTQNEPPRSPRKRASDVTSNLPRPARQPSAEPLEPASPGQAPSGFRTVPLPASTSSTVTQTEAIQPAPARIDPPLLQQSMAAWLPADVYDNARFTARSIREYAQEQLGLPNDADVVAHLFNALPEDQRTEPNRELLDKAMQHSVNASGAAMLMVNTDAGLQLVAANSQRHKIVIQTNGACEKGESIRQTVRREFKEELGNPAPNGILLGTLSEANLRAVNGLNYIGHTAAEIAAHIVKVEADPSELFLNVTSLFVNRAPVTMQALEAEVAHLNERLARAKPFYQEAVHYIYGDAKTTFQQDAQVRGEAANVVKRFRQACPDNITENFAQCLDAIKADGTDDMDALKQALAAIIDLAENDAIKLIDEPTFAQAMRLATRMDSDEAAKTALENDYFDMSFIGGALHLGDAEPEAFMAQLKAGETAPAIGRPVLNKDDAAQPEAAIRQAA

SMILES	phosphate colorimetric assay coupled to alkaline phosphatase (optimum pH 7.9-8.5)	phosphate colorimetric assay coupled to alkaline phosphatase
Nc1ncnc2c1ncn2[C@@H]1O[C@H](COP(=O)(O)OP(=O)(O)OC[C@H]2OC(O)[C@H](O)[C@@H]2O)[C@@H](O)[C@H]1O (some centres unmarked) [ADPr]	RipN can hydrolyse ADPr, NADH, NAD, FAD (flavin adenine dinucleotide) and Ap4A	
NC(=O)C1=CN([C@@H]2O[C@H](COP(=O)(O)OP(=O)(O)OC[C@H]3O[C@@H](n4cnc5c(N)ncnc54)[C@H](O)[C@@H]3O)[C@@H](O)[C@H]2O)C=CC1 [NADH]		with ADPr and NADH being the preferred substrates in vitro
